Laboratory results: paper PMC12627933, “A First-In-Human Study of the SUMOylation Inhibitor Subasumstat in Patients with Advanced/Metastatic Solid Tumors or Relapsed/Refractory Hematologic Malignancies” (Cancer Research Communications, 2025)
Entries after “also recorded” stand apart in the source; their conditions may differ.

How the values were obtained:
relapsed/refractory NHL = system: relapsed/refractory NHL; design: method as in ref 19 = [19]; 19. Assouline S , Mehta A , Phillips T , Alinari L , Danilov AV , Doucet S , . TAK-981, a first-in-class SUMO-activating enzyme inhibitor, combined with rituximab in adult patients (Pts) with CD20-pos; conditions: in combination with rituximab; 24 patients with relapsed/refractory NHL; cited from earlier work
[1] = Dose-limiting toxicities in cycle 1 and determination of MTD/RP2D (phase I dose escalation); format: in vivo; conditions: for n with DLTs during cycle 1: N = 6
Experimental: This study comprised two parts: a phase I dose escalation and a phase II dose expansion (Fig. 1). In the dose-escalation phase, patients were enrolled to receive subasumstat intravenously as a 1-hour (±10 minutes) infusion on days 1, 4, 8, and 11 of a 21-day cycle (biweekly schedule). […] Dose escalation was based on cohort with an adaptive design using Bayesian logistic regression modeling with overdose control. The starting dose of subasumstat was based on Good Laboratory Practice animal toxicity studies and supported by the estimation of a minimum anticipated biologically effective level. A detailed description of dose-limiting toxicities (DLT) is presented in the Supplementary Methods.
The occurrence of DLTs was assessed during cycle 1 (DLTs are described in the Supplementary Methods). Treatment-emergent adverse events (TEAE) were graded according to NCI Common Terminology Criteria for Adverse Events version 5.0, except for cytokine release syndrome (CRS), which was graded according to the American Society for Transplantation and Cellular Therapy Consensus Grading for CRS ([20]).
It was anticipated that approximately 70 DLT-evaluable patients would be enrolled for dose escalation. The safety analysis set included all patients who received at least one dose, even if incomplete, of subasumstat. […] The overall response rate (ORR) was defined as the proportion of patients who achieved complete response and partial response (PR) during the study. The disease control rate (DCR) was defined as the proportion of patients who achieved […] as per RECIST v1.1 for solid tumors or Lugano classification for lymphomas. […] Progression-free survival was summarized descriptively using the Kaplan–Meier method.
17. History of allogeneic tissue or solid organ transplant.
18. Second malignancy within the previous 3 years, except treated basal cell or localized squamous skin carcinomas, localized prostate cancer, cervical carcinoma in situ, resected colorectal adenomatous polyps, breast cancer in situ, or other malignancy for which the patient is not on active anticancer therapy.
19. Female patients who are lactating and breastfeeding or have a positive serum pregnancy test during the screening period or a positive urine pregnancy test on day 1 before first dose of study drug.
Definition of dose-limiting toxicities (DLTs) for phase I only
DLTs were defined as any AEs occurring in cycle 1 (unless considered unrelated to the study drug) with the following characteristics:
2. Nonfebrile grade 4 neutropenia (absolute neutrophil count [ANC] <0.5 ×
If myeloid growth factors are used, the event will be considered as DLT irrespective of the duration. […]
temperature of ≥38°C for ≥1 hour.
4. Grade 4 thrombocytopenia lasting ≥7 consecutive days. A platelet count <10
5. Grade 3 thrombocytopenia lasting longer than 14 days or accompanied by grade 2 bleeding or requiring transfusion.
6. Delay in the initiation of cycle 2 by ≥14 days due to a lack of adequate recovery of treatment-related hematological or nonhematologic toxicities.
7. Grade ≥3 nonhematologic toxicity with the following exceptions:
• Grade 3 arthralgia/myalgia that responds to nonsteroidal anti-inflammatory […]
• Grade 3 fatigue lasting fewer than 7 days.
• Grade 3 endocrine disorder that is managed with or without therapy and the patient is asymptomatic.
• Grade 3 or 4 inflammatory reaction attributed to a local antitumor […]
• Grade 3 infusion-related actions that resolves within 6 hours with appropriate clinical management.
• Grade 3 cytokine release syndrome that resolves to grade ≤1 in less than 7 days without end-organ damage.
• Asymptomatic laboratory changes (other than renal and hepatic laboratory values) that can be successfully supplemented (reversion of grade 4

[2] = system: lymphoma and pancreatic cancer xenografts; design: method as in PMID 33631934; conditions: cited from earlier work

Cc1sc(C(=O)c2cncnc2N[C@@H]2C[C@H](COS(N)(=O)=O)[C@@H](O)C2)cc1[C@@H]1NCCc2ccc(Cl)cc21 [subasumstat]
ORR (relapsed/refractory NHL): 29% | n with DLTs during cycle 1 ([1]; 60 mg BIW): 1 | Description of DLT ([1]; 60 mg BIW, subasumstat reduced to 40 mg BIW): Transient grade 3 ALT/AST | n with DLTs during cycle 1 ([1]; 90 mg BIW): 1 | Description of DLT ([1]; 90 mg BIW, study treatment discontinued): Grade 3 pneumonitis | n with DLTs during cycle 1 ([1]; 120 mg BIW): 2 | Description of DLT ([1]; 120 mg BIW, n = 1 each): Grade 3 stomatitis; also recorded: Grade 3 cognitive disorder | Biologically / pharmacodynamically active dose ([1]; across a range of pharmacodynamic measures): ≥ 60 mg | Patients reporting DLTs ([1]; phase I, 74 of 84 DLT-evaluable, all in twice weekly cohorts): four | MTD ([1]; twice weekly (days 1, 4, 8, 11 of 21-day cycle), intravenous): 120 mg | Recommended phase II dose (RP2D) ([1]; twice weekly, intravenous): 90 mg | Antitumor activity ([2]; immunocompromised mice): shows antitumor activity | SUMOylation in tumors ([2]; xenograft models): inhibits SUMOylation in tumors
